Data taken from the supplement of paper PMC10307832.

Assays:
Experiment in all cases: relative viability (nuclei count vs DMSO), 5 days (fraction); higher = more cells survive
[1] = compound: C[C@]12O[C@H](C[C@]1(O)CO)n1c3ccccc3c3c4c(c5c6ccccc6n2c5c31)CNC4=O [Lestaurtinib] + CC1(C)CCC(c2ccc(Cl)cc2)=C(CN2CCN(c3ccc(C(=O)NS(=O)(=O)c4ccc(N[C@H](CCN5CCOCC5)CSc5ccccc5)c(S(=O)(=O)C(F)(F)F)c4)cc3)CC2)C1 [Navitoclax] (partner 0.5 µM)
Procedure, shortened: (§1)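 Lung cancer cell lines in 1536-well plates got either a single drug or a fixed anchor-drug dose together with five library-drug doses (not always all listed) in √10 steps, by pin tool, on the day after seeding. Nuclei were counted after 5 days, and relative viability is the treated-to-vehicle ratio of nuclei counts. Values are medians of duplicate plates.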

[2] = compound: C1/C(=C\C2=CC=CS2)/C(=O)/C(=C/C3=CC=CS3)/C1 + CC(=O)c1c(C)c2cnc(Nc3ccc(N4CCNCC4)cn3)nc2n(C2CCCC2)c1=O [Palbociclib] (partner 0.5 µM)
Procedure, shortened: as §1

[3] = compound: C1=CC(=CC=C1C2=CC(=C(S2)NC(=O)N)C(=O)N)F [TPCA-1] + Cc1cc(Nc2cc(N3CCN(C)CC3)nc(Sc3ccc(NC(=O)C4CC4)cc3)n2)n[nH]1 [Tozasertib] (partner 0.1 µM)
Procedure, shortened: as §1

[4] = compound: C[C@]12O[C@H](C[C@]1(O)CO)n1c3ccccc3c3c4c(c5c6ccccc6n2c5c31)CNC4=O [Lestaurtinib] + NC(=O)Nc1cc(-c2cccc(F)c2)sc1C(=O)N[C@H]1CCCNC1 [AZD7762] (partner 0.2 µM)
Procedure, shortened: as §1

Cell Line: Calu-6
- relative viability ([1]; first compound 0.005 µM): 1.01
- relative viability ([1]; first compound 0.01581 µM): 0.797
- relative viability ([1]; first compound 0.05 µM): 0.506
- relative viability ([1]; first compound 0.1581 µM): 0.468
- relative viability ([1]; first compound 0.5 µM): 0.106

Cell Line: ChaGo-K-1
- relative viability ([2]; first compound 0.2 µM): 0.956
- relative viability ([2]; first compound 0.6325 µM): 0.954
- relative viability ([2]; first compound 2 µM): 0.84
- relative viability ([2]; first compound 6.325 µM): 0.719
- relative viability ([2]; first compound 20 µM): 0.479
- relative viability ([3]; first compound 0.04 µM): 0.232
- relative viability ([3]; first compound 0.1265 µM): 0.237
- relative viability ([3]; first compound 0.4 µM): 0.251
- relative viability ([3]; first compound 1.265 µM): 0.226
- relative viability ([3]; first compound 4 µM): 0.207
- relative viability ([1]; first compound 0.005 µM): 1.03
- relative viability ([1]; first compound 0.01581 µM): 1.59
- relative viability ([1]; first compound 0.05 µM): 0.962
- relative viability ([1]; first compound 0.1581 µM): 0.603
- relative viability ([1]; first compound 0.5 µM): 0.497
- relative viability ([4]; first compound 0.005 µM): 0.924
- relative viability ([4]; first compound 0.01581 µM): 0.834
- relative viability ([4]; first compound 0.05 µM): 0.775
- relative viability ([4]; first compound 0.1581 µM): 0.816
- relative viability ([4]; first compound 0.5 µM): 0.461

Cell Line: EBC-1
- relative viability ([1]; first compound 0.005 µM): 0.381
- relative viability ([1]; first compound 0.01581 µM): 0.51
- relative viability ([1]; first compound 0.05 µM): 0.343
- relative viability ([1]; first compound 0.1581 µM): 0.328
- relative viability ([1]; first compound 0.5 µM): 0.193

Cell Line: EKVX
- relative viability ([2]; first compound 0.2 µM): 0.383
- relative viability ([2]; first compound 0.6325 µM): 0.388
- relative viability ([2]; first compound 2 µM): 0.367
- relative viability ([2]; first compound 20 µM): 0.409
- relative viability ([3]; first compound 0.04 µM): 0.387
- relative viability ([3]; first compound 0.1265 µM): 0.332
- relative viability ([3]; first compound 0.4 µM): 0.428
- relative viability ([3]; first compound 1.265 µM): 0.354
- relative viability ([3]; first compound 4 µM): 0.284
- relative viability ([1]; first compound 0.005 µM): 1.03
- relative viability ([1]; first compound 0.01581 µM): 0.889
- relative viability ([1]; first compound 0.05 µM): 0.965
- relative viability ([1]; first compound 0.1581 µM): 0.929
- relative viability ([1]; first compound 0.5 µM): 0.45
- relative viability ([4]; first compound 0.005 µM): 0.718
- relative viability ([4]; first compound 0.05 µM): 0.643
- relative viability ([4]; first compound 0.1581 µM): 0.755
- relative viability ([4]; first compound 0.5 µM): 0.546

Cell Line: EMC-BAC-2
- relative viability ([2]; first compound 0.2 µM): 0.548
- relative viability ([2]; first compound 0.6325 µM): 0.549
- relative viability ([2]; first compound 2 µM): 0.526
- relative viability ([2]; first compound 6.325 µM): 0.472
- relative viability ([2]; first compound 20 µM): 0.518
- relative viability ([3]; first compound 0.04 µM): 0.251
- relative viability ([3]; first compound 0.1265 µM): 0.306
- relative viability ([3]; first compound 0.4 µM): 0.302
- relative viability ([3]; first compound 1.265 µM): 0.498
- relative viability ([3]; first compound 4 µM): 0.25
- relative viability ([1]; first compound 0.005 µM): 1.25
- relative viability ([1]; first compound 0.01581 µM): 1.22
- relative viability ([1]; first compound 0.05 µM): 0.891
- relative viability ([1]; first compound 0.1581 µM): 0.656
- relative viability ([1]; first compound 0.5 µM): 0.346
- relative viability ([4]; first compound 0.005 µM): 1.07
- relative viability ([4]; first compound 0.01581 µM): 1.12
- relative viability ([4]; first compound 0.05 µM): 0.842
- relative viability ([4]; first compound 0.1581 µM): 0.441
- relative viability ([4]; first compound 0.5 µM): 0.346

Cell Line: EPLC-272H
- relative viability ([2]; first compound 0.2 µM): 0.326
- relative viability ([2]; first compound 0.6325 µM): 0.327
- relative viability ([2]; first compound 2 µM): 0.356
- relative viability ([2]; first compound 6.325 µM): 0.213
- relative viability ([2]; first compound 20 µM): 0.345
- relative viability ([3]; first compound 0.04 µM): 0.652
- relative viability ([3]; first compound 0.1265 µM): 0.277
- relative viability ([3]; first compound 0.4 µM): 0.31
- relative viability ([3]; first compound 1.265 µM): 0.442
- relative viability ([3]; first compound 4 µM): 0.251
- relative viability ([1]; first compound 0.005 µM): 1.29
- relative viability ([1]; first compound 0.01581 µM): 0.924
- relative viability ([1]; first compound 0.05 µM): 0.6
- relative viability ([1]; first compound 0.1581 µM): 0.643
- relative viability ([1]; first compound 0.5 µM): 0.689
- relative viability ([4]; first compound 0.005 µM): 0.153
- relative viability ([4]; first compound 0.01581 µM): 0.219
- relative viability ([4]; first compound 0.05 µM): 0.119
- relative viability ([4]; first compound 0.1581 µM): 0.225
- relative viability ([4]; first compound 0.5 µM): 0.27

Cell Line: H3255
- relative viability ([2]; first compound 0.2 µM): 0.325
- relative viability ([2]; first compound 0.6325 µM): 0.33
- relative viability ([2]; first compound 2 µM): 0.324
- relative viability ([2]; first compound 6.325 µM): 0.308
- relative viability ([2]; first compound 20 µM): 0.297
- relative viability ([3]; first compound 0.04 µM): 0.612
- relative viability ([3]; first compound 0.1265 µM): 0.6
- relative viability ([3]; first compound 0.4 µM): 0.623
- relative viability ([3]; first compound 1.265 µM): 0.58
- relative viability ([3]; first compound 4 µM): 1.03
- relative viability ([1]; first compound 0.005 µM): 0.44
- relative viability ([1]; first compound 0.01581 µM): 0.437
- relative viability ([1]; first compound 0.05 µM): 0.327
- relative viability ([1]; first compound 0.1581 µM): 0.279
- relative viability ([1]; first compound 0.5 µM): 0.182
- relative viability ([4]; first compound 0.005 µM): 0.961
- relative viability ([4]; first compound 0.01581 µM): 0.945
- relative viability ([4]; first compound 0.05 µM): 0.866
- relative viability ([4]; first compound 0.1581 µM): 0.879
- relative viability ([4]; first compound 0.5 µM): 0.543

Cell Line: IA-LM
- relative viability ([1]; first compound 0.005 µM): 0.887
- relative viability ([1]; first compound 0.01581 µM): 0.994
- relative viability ([1]; first compound 0.05 µM): 0.817
- relative viability ([1]; first compound 0.1581 µM): 0.85
- relative viability ([1]; first compound 0.5 µM): 0.236

Cell Line: LCLC-103H
- relative viability ([2]; first compound 0.2 µM): 0.49
- relative viability ([2]; first compound 0.6325 µM): 0.456
- relative viability ([2]; first compound 2 µM): 0.469
- relative viability ([2]; first compound 6.325 µM): 0.426
- relative viability ([2]; first compound 20 µM): 0.469
- relative viability ([3]; first compound 0.04 µM): 0.488
- relative viability ([3]; first compound 0.1265 µM): 0.405
- relative viability ([3]; first compound 0.4 µM): 0.515
- relative viability ([3]; first compound 1.265 µM): 0.513
- relative viability ([3]; first compound 4 µM): 0.321
- relative viability ([4]; first compound 0.005 µM): 0.924
- relative viability ([4]; first compound 0.01581 µM): 0.785
- relative viability ([4]; first compound 0.05 µM): 0.635
- relative viability ([4]; first compound 0.1581 µM): 0.633
- relative viability ([4]; first compound 0.5 µM): 0.452
